“And” between values parts separate entries of the source, which are not always exact repeats. Equal entries are not always repeated.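 Where inhibition never reached the appropriate level, the endpoint shown equals the highest concentration tested. Otherwise, values were interpolated linearly from a five-concentration, 48-hour dose response in 96-well plates. The concentration for 50% growth inhibition is given as GI50. At the TGI there is no net growth.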
How the values were obtained:
Test in all cases: NCI-60 cell line screen, 48 h
[1] = system: RXF 393 renal
[2] = system: HS 578T breast
[3] = system: IGROV1 ovarian
[4] = system: UO-31 renal
[5] = system: NCI/ADR-RES ovarian
[6] = system: NCI-H460 lung
[7] = system: UACC-257 melanoma
[8] = system: SF-268 CNS
[9] = system: HL-60(TB) leukemia
[10] = system: SK-MEL-2 melanoma

| SMILES | GI50 [1] [µM] | TGI [1] | GI50 [2] [µM] | TGI [2] [µM] | GI50 [3] [µM] | TGI [3] [µM] | GI50 [4] [µM] | TGI [4] | GI50 [5] [µM] | TGI [5] [µM] | GI50 [6] [µM] | TGI [6] | GI50 [7] [µM] | TGI [7] | GI50 [8] [µM] | TGI [8] | GI50 [9] [µM] | TGI [9] | GI50 [10] [µM] | TGI [10] |
| --- | --- | --- | --- | --- | --- | --- | --- | --- | --- | --- | --- | --- | --- | --- | --- | --- | --- | --- | --- | --- |
| c1ccc(Oc2cnc3ccccc3n2)cc1 | 31.9 | > 100 µM | 30.3 | > 100 | 74.5 | > 100 | 39.1 | > 100 µM | > 100 | > 100 | > 100 | > 100 µM | > 100 | > 100 µM | 64 | > 100 µM | 18.7 | > 100 µM | > 100 | > 100 µM |
| OC(c1cc2c(Cl)cc(Cl)cc2c2cc(C(F)(F)F)ccc12)C1CCCCN1 (stereo not drawn) | 1.61 | 3.12 µM | 1.59 | 3.72 | 1.74 | 3.58 | 1.41 | 2.99 µM | 1.77 | 3.64 | 1.7 | 3.4 µM | 1.92 | 3.7 µM | 1.86 | 3.82 µM | 1.85 | 3.71 µM | 2.27 | 4.12 µM |
| COc1ccc(-n2cc(-c3ccc(F)cc3)[nH]c2=O)cc1OC | > 100 | > 100 µM | 98.9 | > 100 | > 100 | > 100 | > 100 | > 100 µM | > 100 | > 100 | > 100 | > 100 µM | > 100 | > 100 µM | > 100 | > 100 µM | > 100 | > 100 µM | > 100 | > 100 µM |
| CCCCCCCCCCCC(=O)[O][Sn]([CH2]CCC)([CH2]CCC)[CH2]CCC | 0.0483 | 0.117 µM | 0.0549 | 0.296 | 0.0547 | 0.175 | 0.0347 | 0.0849 µM | 0.0703 | 0.236 | 0.0438 | 0.156 µM | 0.0533 | 0.181 µM | 0.0535 | 0.199 µM | 0.0567 | 0.155 µM | 0.0555 | 0.13 µM |
| O=c1c(Br)ccc(Br)cc1Br | 1.65 | 3.06 µM | 3.44 | 23.1 | 2.4 | 5.64 | 1.51 | 2.95 µM | 2.56 | 7.16 | 4.88 | 11.5 µM | 1.91 | 3.49 µM | 2.62 | 6.57 µM | 0.662 | 2.67 µM | 2.39 | 5.85 µM |
| CCCCCCOc1ccc(/C=N/Nc2cc(C)nc3ccc(Br)cc23)cc1 | 1.55 | 2.95 µM | 2.16 | 4.49 | 1.75 | 3.45 | 1.53 | 2.89 µM | 1.9 | 3.84 | 1.94 | 3.88 µM | 1.95 | 3.65 µM | 2.07 | 4.24 µM | 1.29 | 3.26 µM | 1.78 | 3.32 µM |
| COc1nc(C(Cl)(Cl)Cl)c(Cl)c(OC)c1Cl |  | > 55.1 µM and 71.8 µM |  | 75.5 | > 58.5 | 89.8 |  | > 64.3 µM and 75.4 µM |  | 58.4 | > 39.4 | > 57.9 µM and 61.2 µM | > 50.9 | > 72.9 µM and 79.7 µM | > 52.2 | > 92.1 µM and 72.2 µM | > 41.9 | > 60.3 µM and 71.8 µM |  | > 31.6 µM and 70.8 µM |
| COc1cc(-c2cc(C(=O)N3CCN(C(=O)c4ccccc4NCc4cccs4)CC3)nc3cc(-c4ccccc4)nn23)cc(OC)c1OC | 2.45 | 8.01 µM | 36.2 | > 100 | 13.9 | > 100 | 6.99 | > 100 µM | 2.6 | 9.29 | 4.26 | > 100 µM | > 100 | > 100 µM | 5.93 | > 100 µM | 6.15 | 75.4 µM | 3.73 | 15.6 µM |
| COc1ccc2nc3c(cc2c1)C(=O)CC(C(F)(F)F)C3 (stereo not drawn) | 0.562 | 5.1 µM | 2.19 | > 100 | 0.792 | > 100 | 1.36 | > 100 µM | 0.367 | > 100 | 1.87 | > 100 µM | > 96.2 | > 100 µM | 34.6 | > 100 µM | 0.333 | > 46.8 µM | 0.847 | > 100 µM |
| CC(=O)SC(C[N+](=O)[O-])c1ccccc1 (stereo not drawn) |  | 4.01 µM |  | 23.4 |  | 5.02 |  | 5.37 µM |  | 55.1 |  | 24.8 µM |  | 24.5 µM |  | 22.6 µM |  | 18.9 µM |  | 50.3 µM |
| COc1cccc(-c2nn(C)c3sc(C(=O)NCCN4CCN(c5ccccc5F)CC4)cc23)c1 | 3.17 | > 100 µM | 26.2 | > 100 | > 100 | > 100 | 4.56 | 47.8 µM | 13.8 | > 100 | 14.8 | > 100 µM | 28.4 | > 100 µM | 46.9 | > 100 µM | 33.1 | > 100 µM | 33.9 | > 100 µM |
| O=C1/C=C/[C@@H](O)[C@@H]2C[C@@H](O)C[C@H]2/C=C/CCCCO1 | 0.424 |  | 0.282 | > 100 | 0.831 | 3.73 | 0.304 | > 38.1 µM | 0.475 | > 54.1 | 1.77 | > 100 µM | 0.545 | > 100 µM | 0.33 |  | 1.61 |  | 0.257 |  |
| Clc1ccc2c(NCCCNCc3ccc4c(c3)OCO4)ccnc2c1 | 1.87 | 5.07 µM | 2.99 | 11.1 | 5.52 | 20.9 | 1.41 | 3.1 µM | 4 | 18.4 | 3.61 | 12.1 µM | 1.91 | 3.44 µM | 3.12 | 12.7 µM | 2.22 | 4.79 µM | 2.03 | 4.56 µM |
| C=CCOc1ccc2c(c1)CC[C@@H]1[C@@H]2CC[C@]2(C)C(=O)/C(=N/O)C[C@@H]12 | 1.98 | 11.8 µM | 1.93 | 11.4 | 3.42 | 14.2 | 2.39 | 39.6 µM | 6.92 | > 52 | 4.71 | 22.1 µM | 11.8 | 59 µM | 3.71 | > 41.9 µM | 0.44 | 6.25 µM | 3.08 | 10.4 µM |
| Cn1cc(C2=C(c3cn(CCCN/C(N)=N\[N+](=O)[O-])c4ccccc34)C(=O)NC2=O)c2ccccc21 | 2 | 7.3 µM | 1.42 | 14.5 | 3.11 | 11.6 | 8.71 | 24.7 µM | > 25 | > 25 | 5.9 | 20.6 µM | 7.12 | 21.8 µM | 3.11 | 11.6 µM | 1.23 | 7.66 µM | 0.614 | 2.23 µM |
| O=C1COCCN1c1ccc(NCc2cn(Cc3ccc(F)cc3)c3ccccc23)cc1 | 0.911 | 5.76 µM | 3.41 | 44.1 | 0.0668 | 1.05 | 2.42 | 18.2 µM | 5.44 | 45.3 | 0.133 | 29.2 µM | 0.204 | 0.844 µM | 9.7 | 50.4 µM | 4.8 | 24.3 µM | 0.779 | 6.06 µM |
| Cc1cccc(C)c1NC(=O)/C(CC(=O)CC(c1ccccc1)c1c(O)c2ccccc2oc1=O)=N/O (stereo not drawn) |  | > 100 µM |  | > 100 |  | > 100 |  | > 100 µM |  | > 100 |  | > 100 µM |  | > 100 µM |  | > 100 µM |  | > 100 µM |  | > 100 µM |
| Nc1c(C(=O)Nc2cccc3ccccc23)sc2nc3c(cc12)CCCCCC3 | 1.5 | > 50 µM | 1.59 | > 50 | 2.31 | > 50 | 5.6 | > 50 µM | 0.784 | > 50 | 1.76 | > 50 µM | > 50 | > 50 µM | 2.77 | > 50 µM | 1.65 | > 50 µM | 17 | > 50 µM |
| COc1cc(-c2nc3cc(Cl)c(Cl)cc3[nH]2)ccc1OCC(=O)N=Nc1c(O)[nH]c2ccccc12 | 0.678 | 2.1 µM | 1.21 | 4.05 | 0.313 | 1.01 | > 52.6 | > 100 µM | > 79.9 | > 100 | 0.42 | 1.63 µM | 1.32 | 3.67 µM | 0.566 | 3.06 µM | 0.392 | 2.22 µM | 1.33 | 3.27 µM |
| Nc1nc(-c2ccccc2Cl)cc(-c2ccc(Cl)cc2Cl)n1 | 2.67 | 10.7 µM | 6.04 | 60.7 | 12.3 | > 100 | 13.5 | > 100 µM | 14.8 | > 100 | 3.31 | 23.1 µM | 11.9 | 55.2 µM | 5.01 | 81.6 µM | 3.14 | 17.3 µM | 6.1 | 44.8 µM |
| CCCCCC(=O)OC[n+]1ccc(-c2c(COC(=O)NC(C)C)c(COC(=O)NC(C)C)c3n2CCC3)cc1 |  | > 100 µM |  | > 100 |  | > 100 |  | > 100 µM |  | > 100 |  | > 100 µM |  | > 100 µM |  | > 100 µM |  | 96.8 µM |  | > 100 µM |
| CCOc1ccc(-n2cc(-c3ccc(N(C)C)cc3)[n+]3c2CCCCC3)cc1 | 4.51 | > 90.3 µM | 3.33 | > 100 | 0.923 | > 100 | 4.94 | 68.5 µM | 31.1 | > 100 | 0.349 | > 38 µM | 0.12 | 2.44 µM | 2.2 | > 100 µM | 0.164 | 1.53 µM | 0.286 | 6.32 µM |
| COc1ccc(/C=C2\CCC(CN(C)C)C2=O)cc1 (stereo not drawn) |  | 13.6 µM |  | > 100 |  | 18.4 |  | 15.5 µM |  | 5.07 |  | 36.4 µM |  | 13.3 µM |  | 19.1 µM |  | 4.23 µM |  | 17.6 µM |
| O=C(Nc1ccc(-n2cc(-c3ccncc3)c(-c3ccc(Cl)c(O)c3)n2)cc1)c1ccc(Cl)c(C(F)(F)F)c1 | 0.213 | 0.606 µM | 0.538 |  | 3.11 | > 28.4 | 0.684 | 2.42 µM | 2.77 | > 100 | 1.43 | 11.1 µM | 3.27 | 39.9 µM | 2.68 | > 31.8 µM | 1.19 |  | 1.61 | 4.69 µM |
| COc1ccc(/C=C/c2cnnc3ccccc23)cc1OC |  | > 10 µM |  | > 10 |  | > 10 |  |  |  | > 10 |  | > 10 µM |  | > 10 µM |  | > 10 µM |  | > 10 µM |  | > 10 µM |
| COc1cc2c(cc1OC)-c1c(c3ccc([N+](=O)[O-])cc3c(=O)n1CCCBr)C2=O | 44.3 | > 100 µM | > 100 | > 100 | 51.8 | > 100 | 5.23 | > 100 µM | 5.91 | > 100 | 0.573 | > 100 µM | 37.2 | > 100 µM | 29 | > 100 µM | 1.31 | 10.2 µM | > 100 | > 100 µM |
| CCc1cc(Cc2cc(CC)cc(C(C)(C)C)c2O)c(O)c(C(C)(C)C)c1 | 1.81 | 4.98 µM | 2.59 | 8.29 | 2.53 | 8.05 | 2.79 | 11.7 µM | 3.94 | 14.7 | 2.59 | 6.98 µM | 2.79 | 11.6 µM | 3.4 | 12.6 µM | 4.42 | > 100 µM | 2.63 | 7.08 µM |

From PubChem BioAssay (NCI)
